This is an account of results in patent US12479870B2, “Base-modified cytidine nucleotides for leukemia therapy” (MEDIVIR AB, priority 2018, dated 2025).

The nature of data set [1]: Tolerability in SCID mice with human Hep3b xenograft (body weight, clinical signs). The conditions noted are these: 25 mg/kg i.p. BID x 5, SCID mice. The class given is in vivo, mouse. How it is done: Compounds were prepared in PBS, n=9 mice per group. Body weights were monitored daily in three SCID mouse populations:
wherein the 5 day BID commenced 21 days after subcutaneous implantation with a human Hep3b xenograft.

Data set [2] relates to advanced, cytarabine-treatment failure, leukemia. The following applies: cited from earlier work.
Data set [3] in a line: Blood stability, murine whole blood. The class given is in vitro ADME. How it is done: Stability of compounds in blood was assessed following incubation in murine or human whole blood for up to 120 minutes. Remaining compound was quantified by LC-MS/MS and resulting data were used to calculate intrinsic clearance (CLint) values: […]
A further data set concerns leukemia cell lines. Put plainly: Average CC50 over the leukemia cell lines of Table 1. The class given is cell-based. The following applies: average over the leukemia cell lines of Table 1. How it is done:
(§1) Leukemia cells were grown in a cell culture flask 75 cm2 with approximately 100 ml complete cell medium. The cells were counted using a Scepter-hand held automated cell counter, using 60 μm sensors (Millipore) and suspended in complete cell medium to 2×10^5cells. 100 μl of the cell suspension were seeded to all wells (2×10^4 cells/well).
CC50 values are calculated by plotting the degree of inhibition (compared to the vehicle ctrl) against the logarithm of the compound concentration. Result values in the dilution series are fitted to a 4-parameter sigmoidal dose-response curve described by the expression:
[formula] where: • A=Minimum • B=Slope. • C=Inflection point. The inflection point is defined as the point on the curve where the curvature changes direction or signs. • D=Maximum • F=fraction inhibition • The CC50 value is the x-value giving F=0.5, as tabulated in Table 1 below: […]

In a further data set the test system is THP-1 cells. Put plainly: Leukemia cell line CC50 assay (Cell Counting Kit-8, 5 days), THP-1. The class given is cell-based. The conditions noted are these: Homo sapiens, THP-1, 120 h, AML, THP1 cell line. How it is done: THP-1 cells (human acute monocytic leukemia) from ATCC Cat. no TIB-202 were grown in complete cell medium: RPMI-1640 medium Gibco Cat. no.11835-063 (Fisher Scientific), 10% Fetal Bovine serum (FBS), HyClone Cat. no. SV30160.03, lot no RAB35924 (GE Healthcare Life Sciences), Penicillin 50 u/ml/Streptomycin 0.05 mg/ml PAA Cat. no. P11-010 from Fisher Scientific.
as §1
(§2) The compounds were tested in twelve concentrations, […], 50 ? BM−5×10^−10 μM. 100 μl from a compound dilution plate were transferred to the cell assay plate=200 μl/well total volume and incubated for 5 days, at 37° C., 5% CO2 incubator.
(§3) After 5 days, 10 μl of KIT-8 was added and the culture was incubated for 3-4 hours, at 37° C., 5% CO2 incubator.
(§4) Plate were read in the spectrophotometer at wavelength 450 nm with a reference filter of 620 nm.
(§5) CC50 values are calculated by plotting the degree of inhibition (compared to the vehicle ctrl) against the logarithm of the compound concentration. […]

The test system of a further data set is Raji cells. Nature of the data set: Leukemia cell line CC50 assay (Cell Counting Kit-8, 5 days), Raji. It is filed as cell-based. The conditions noted are these: Homo sapiens, 120 h, BL (B cell). How it is done:
Raji cells (B-lymphocyte from Burkitt's lymphoma) from ATCC Cat. no CCL-86 were grown in complete cell medium: RPMI-1640 medium Gibco Cat. no.11835-063 (Fisher Scientific), 10% Fetal Bovine serum (FBS), HyClone Cat. no. SV30160.03, lot no RAB35924 (GE Healthcare Life Sciences), Penicillin 50 u/ml/Streptomycin 0.05 mg/ml PAA Cat. no. P11-010 from Fisher Scientific.
as §1, §2, §3, §4, §5

A further data set relates to K-562 cells. Nature of the data set: Leukemia cell line CC50 assay (Cell Counting Kit-8, 5 days), K-562. It is filed as cell-based. The following applies: Homo sapiens, 120 h, CML, K562 cell line. How it is done: K-562 cells (human chronic myelogenous leukemia) from ATCC Cat. no CCL-243 were grown in complete cell medium: IMDM (w. L-glutamine, 25 mM Hepes, w/o Phenol red) Cat no. 21056-023 (Fisher Scientific), 10% Fetal Bovine serum (FBS) HyClone Cat. no. SV30160.03, lot no RAB35924 (GE Healthcare Life Sciences), Penicillin 50u/ml/Streptomycin 0.05 mg/ml Cat. no. SV30010 HyClone (Fisher Scientific)
as §1, §2, §3, §4, §5

Another data set has as its system U-937 cells. Nature of the data set: Leukemia cell line CC50 assay (Cell Counting Kit-8, 5 days), U-937. The class given is cell-based. The conditions noted are these: Homo sapiens, U-937, 120 h, AML, U937 cell line. How it is done: U-937 cells (human histiocytic lymphoma) from ATCC Cat. no CRL-1593.2 were grown in complete cell medium: RPMI-1640 medium Gibco Cat. no.11835-063 (Fisher Scientific), 10% Fetal Bovine serum (FBS), HyClone Cat. no. SV30160.03, lot no RAB35924 (GE Healthcare Life Sciences), Penicillin 50u/ml/Streptomycin 0.05 mg/ml PAA Cat. no. P11-010 from Fisher Scientific.
as §1, §2, §3, §4, §5

For another data set, the system named is CEM cells. Nature of the data set: Leukemia cell line CC50 assay (Cell Counting Kit-8, 5 days), CEM. The conditions noted are these: Homo sapiens, CCRF-CEM, 120 h, ALL (T cell). The class given is cell-based. How it is done:
CEM cells (T-lymphoblast from acute lymphoblastic leukemia) acquired from Swedish Institute for Infectious Disease Control (SMI) were grown in complete cell medium: RPMI-1640 medium (without L-glutamine) Cat. no. R7509 (Sigma Aldrich), 10% Fetal Bovine serum (FBS) HyClone Cat. no. SV30160.03, lot no RAB35924 (GE Healthcare Life Sciences), Penicillin 50u/ml/Streptomycin 0.05 mg/ml PAA Cat. no. P11-010 from Fisher Scientific, 2 mM Ultra glutamine 1 Cat. no BE17-605E/U1 (Lonza). • Cell culture flask 75 cm2, Cat. no. 83.1813 from Sarstedt AB. • Compound dilution plate, 96-well, V-bottom PP plate, Nunc Cat. no.249944 from Thermo Scientific. • Cell assay plate, 96-well, Cat. no. 128009296 from Fisher Scientific • Cell Counting Kit-8 CK04 from Dojindo. • Test compounds were made up to 10 mM stock solution in DMSO
Leukemia cells were grown in a cell culture flask 75 cm2 with approximately 100 ml complete cell medium. The cells were counted using a Scepter-hand held automated cell counter, using 60 μm sensors (Millipore) and suspended in complete cell medium to 2×10^5cells. 100 μl of the cell suspension were seeded to all wells (2×10^4 cells/well). […]
as §4, §5

The subject of the next data set is MV4-11 cells. Nature of the data set: Leukemia cell line CC50 assay (Cell Counting Kit-8, 5 days), MV4-11. The class given is cell-based. The conditions noted are these: Homo sapiens, MV4-11, 120 h, AML, MV411 cell line. How it is done: MV4-11 cells (human B-myelomonocytic leukemia) from ATCC Cat no. CRL-9591 were grown in complete cell medium: IMDM (w. GLUTAMAX-1) Cat no. 31980022 (Fisher Scientific), 10% Fetal Bovine serum (FBS) HyClone Cat. no. SV30160.03, lot no RAB35924 (GE Healthcare Life Sciences), Penicillin 50 u/ml/Streptomycin 0.05 mg/ml PAA Cat. no. P11-010 from Fisher Scientific.
as §1, §2, §3, §4, §5

The subject of another data set is MOLT-4 cells. Put plainly: Leukemia cell line CC50 assay (Cell Counting Kit-8, 5 days), MOLT-4. It is filed as cell-based. The conditions noted are these: Homo sapiens, 120 h, ALL (T cell), MOLT-4 cell line. On the procedure:
MOLT-4 cells (human T-cell, acute lymphoblastic leukemia) from ATCC Cat. no CRL-1582 were grown in complete cell medium: RPMI-1640 medium Gibco Cat. no.11835-063 (Fisher Scientific), 10% Fetal Bovine serum (FBS) HyClone Cat. no. SV30160.03, lot no RAB35924 (GE Healthcare Life Sciences), Penicillin 50 u/ml/Streptomycin 0.05 mg/ml PAA Cat. no. P11-010 from Fisher Scientific
as §1, §2, §3, §4, §5

A further data set deals with HL60 cells. Nature of the data set: Leukemia cell line CC50 assay (Cell Counting Kit-8, 5 days), HL60. The class given is cell-based. The conditions noted are these: Homo sapiens, HL-60, 120 h, AML. On the procedure:
HL60 cells (human acute promyelocytic leukemia) from ATCC Cat. no CCL-240 were grown in complete cell medium: IMDM Cat. no 330-2005 (ATCC), 20% Fetal Bovine serum (FBS) HyClone Cat. no. SV30160.03, lot no RAB35924 (GE Healthcare Life Sciences), Penicillin 50u/ml/Streptomycin 0.05 mg/ml PAA Cat. no. P11-010 from Fisher Scientific
as §1, §2, §3, §4
CC50 values are calculated by plotting the degree of inhibition (compared to the vehicle ctrl) against the logarithm of the compound concentration. Result values in the dilution series are fitted to a 4-parameter sigmoidal dose-response curve described by the expression: […]

Regarding `Nc1ccn([C@@H]2CO[C@H](CO)O2)c(=O)n1` [troxacitabine], in data set [1], the “tolerability observations (bodyweight, clinical signs)” value was “persistent bodyweight loss and clinical signs including piloerection, hunched posture and subdued behavior”. In addition, the “patients with transient decrease in peripheral blood and marrow blasts” value in [2] is given as “Four”.

On to `Nc1nc(=O)n([C@@H]2CO[C@H](CO)O2)cc1F` [5-fluorotroxacitabine, 4-amino-5-fluoro-1-((25,4S)-2-(hydroxymethyl)-1,3-dioxolan-4-yl)pyrimidin-2(1H)-one, reference compound], for which the “stability in mouse blood” value in data set [3] is recorded as “stable in mouse blood”.

Regarding `CCC[C@H](C)OC(=O)[C@H](C)NP(=O)(OC[C@H]1OC[C@@H](n2cc(F)c(N)nc2=O)O1)Oc1cccc(C2CC2)c1` (single isomer, unassigned) [Prior art Ex 29 dia-2, reference compound], the CC50 with leukemia cell lines was determined as 310 nM; in the data set on THP-1 cells, 250 nM; in the data set with Raji cells, 850 nM; with K-562 cells, 720 nM; with U-937 cells, 240 nM; in the data set with CEM cells it was 98 nM. Also, the CC50 in the data set with MV4-11 cells came to 7.8 nM; in the data set with MOLT-4 cells, 2.9 nM.

With `CC[C@@H](C)OC(=O)[C@H](C)NP(=O)(OC[C@H]1OC[C@@H](n2cc(F)c(N)nc2=O)O1)Oc1ccccc1` (single isomer, unassigned) [Prior art Ex 32 dia 2, reference compound], the cytotoxic concentration (CC50) amounted to 350 nM in the data set with leukemia cell lines; 200 nM in the data set on THP-1 cells; 1000 nM in the data set on Raji cells; 440 nM in the data set on K-562 cells; 240 nM with U-937 cells; 52 nM in the data set on CEM cells. Further, the CC50 with HL60 cells was 890 nM; in the data set with MV4-11 cells, 8.1 nM; with MOLT-4 cells it was 3.8 nM.
